# In ChEMBL document CHEMBL1201862, “PubChem BioAssay data set” (2004):
# Several values for one entry are separate records, joined by “and”; a condition that tells them apart may be missing. Identical values can stand only once.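 Exposure lasted 48 hours, with cells grown in 96-well plates and compounds tested at five concentrations. GI50 marks 50% less growth.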 Activity calls are given as the source filed them. No stated cut-off is given here; in the data, active = GI50 up to about 1.1 µM and inactive = higher.
# How the values were obtained:
# Assay in all cases: growth of human tumour cells (NCI), 48 h
# [1] = test system: HL-60
# [2] = test system: MOLT-4
# [3] = test system: OVCAR-4
# [4] = test system: RPMI-8226
# [5] = test system: SR
# [6] = test system: A498
# [7] = test system: A549
# [8] = test system: ACHN
# [9] = test system: CAKI-1
# [10] = test system: CCRF-CEM
# [11] = test system: COLO 205
# [12] = test system: EKVX
# [13] = test system: HCC 2998
# [14] = test system: HCT-116
# [15] = test system: HCT-15
# [16] = test system: HOP-62
# [17] = test system: HOP-92
# [18] = test system: HT-29
# [19] = test system: Hs-578T
# [20] = test system: IGROV-1
# [21] = test system: K562
# [22] = test system: KM12
# [23] = test system: LOX IMVI
# [24] = test system: M14
# [25] = test system: MCF7
# [26] = test system: MDA-MB-435
# [27] = test system: MDA-N
# [28] = test system: Malme-3M
# [29] = test system: NCI-H226
# [30] = test system: NCI-H23
# [31] = test system: NCI-H460
# [32] = test system: NCI-H522
# [33] = test system: OVCAR-3
# [34] = test system: OVCAR-5
# [35] = test system: OVCAR-8
# [36] = test system: PC-3
# [37] = test system: SF-268
# [38] = test system: SF-295
# [39] = test system: SF-539
# [40] = test system: SK-MEL-28
# [41] = test system: SK-MEL-2
# [42] = test system: SK-MEL-5
# [43] = test system: SK-OV-3
# [44] = test system: SNB-19
# [45] = test system: SNB-75
# [46] = test system: SW-620
# [47] = test system: T47D
# [48] = test system: TK-10
# [49] = test system: U-251
# [50] = test system: UACC-257
# [51] = test system: UACC-62
# [52] = test system: UO-31
# [53] = test system: 786-0
# [54] = test system: DU-145
# [55] = test system: MDA-MB-231
# [56] = test system: NCI/ADR-RES
# [57] = test system: RXF 393
# [58] = test system: SN12C
structure (smiles),measurement,setting,value
CC(=O)OCC1OC(Sc2nc(-c3ccc(Cl)cc3)c(C#N)c(=O)n2C2OC(COC(C)=O)C(OC(C)=O)C(OC(C)=O)C2OC(C)=O)C(OC(C)=O)C(OC(C)=O)C1OC(C)=O (stereo not drawn),GI50,[1],3.82 µM (inactive)
same,GI50,[2],50.4 µM (inactive) and > 26.4 µM (inactive)
same,GI50,[3],3.45 µM (inactive)
same,GI50,[4],35.9 µM (inactive)
same,GI50,[5],30.3 µM (inactive)
CNC1=C(C)C(=O)C2=C(C1=O)C(COC(N)=O)C1(OC)C3NC3CN21 (stereo not drawn),GI50,[6],0.632 µM (active)
same,GI50,[7],0.106 µM (active)
same,GI50,[8],0.16 µM (active)
same,GI50,[9],0.0653 µM (active)
same,GI50,[10],4.19 µM (inactive)
same,GI50,[11],0.187 µM (active)
same,GI50,[12],22 µM (inactive)
same,GI50,[13],0.313 µM (active)
same,GI50,[14],0.209 µM (active)
same,GI50,[15],0.391 µM
same,GI50,[1],2.02 µM (inactive)
same,GI50,[16],0.092 µM (active)
same,GI50,[17],> 10 µM (inactive)
same,GI50,[18],0.207 µM (active)
same,GI50,[19],2.49 µM (inactive)
same,GI50,[20],3.53 µM (inactive)
same,GI50,[21],4.07 µM (inactive)
same,GI50,[22],0.413 µM (active)
same,GI50,[23],0.152 µM (active)
same,GI50,[24],0.22 µM (active)
same,GI50,[25],0.107 µM (active)
same,GI50,[26],1.6 µM (inactive)
same,GI50,[27],0.574 µM (active)
same,GI50,[2],3.68 µM (inactive)
same,GI50,[28],0.571 µM (active)
same,GI50,[29],0.543 µM (active)
same,GI50,[30],0.105 µM (active)
same,GI50,[31],< 0.01 µM (active)
same,GI50,[32],0.427 µM (active)
same,GI50,[33],3.36 µM (inactive)
same,GI50,[3],2.95 µM (inactive)
same,GI50,[34],4.91 µM (inactive)
same,GI50,[35],0.644 µM (active)
same,GI50,[36],2.94 µM (inactive)
same,GI50,[4],3.13 µM (inactive)
same,GI50,[37],0.783 µM (active)
same,GI50,[38],0.0853 µM (active)
same,GI50,[39],0.183 µM (active)
same,GI50,[40],1.29 µM (inactive)
same,GI50,[41],1.15 µM (inactive)
same,GI50,[42],0.0445 µM (active)
same,GI50,[43],1.27 µM (inactive)
same,GI50,[44],0.268 µM (active)
same,GI50,[45],0.141 µM (active)
same,GI50,[5],0.0462 µM (active)
same,GI50,[46],0.385 µM (active)
same,GI50,[47],1.5 µM (inactive)
same,GI50,[48],3.1 µM (inactive)
same,GI50,[49],0.883 µM (active)
same,GI50,[50],0.951 µM (active)
same,GI50,[51],0.221 µM (active)
same,GI50,[52],2.19 µM (inactive)
Cc1n[nH]/c(=N\S(=O)(=O)c2ccc(/N=N/c3c(O)c(C(=O)O)cc4ccccc34)cc2)s1,GI50,[53],> 100 µM (inactive)
same,GI50,[7],> 100 µM (inactive)
same,GI50,[8],> 100 µM (inactive)
same,GI50,[9],> 100 µM (inactive)
same,GI50,[10],> 100 µM (inactive)
same,GI50,[11],> 100 µM (inactive)
same,GI50,[54],> 100 µM (inactive)
same,GI50,[12],> 100 µM (inactive)
same,GI50,[13],> 100 µM (inactive)
same,GI50,[14],> 100 µM (inactive)
same,GI50,[15],> 100 µM
same,GI50,[1],> 100 µM (inactive)
same,GI50,[16],> 100 µM (inactive)
same,GI50,[17],> 100 µM (inactive)
same,GI50,[18],> 100 µM (inactive)
same,GI50,[19],> 100 µM (inactive)
same,GI50,[20],> 100 µM (inactive)
same,GI50,[21],> 100 µM (inactive)
same,GI50,[22],> 100 µM (inactive)
same,GI50,[24],> 100 µM (inactive)
same,GI50,[25],> 100 µM (inactive)
same,GI50,[55],> 100 µM (inactive)
same,GI50,[26],> 100 µM (inactive)
same,GI50,[27],> 100 µM (inactive)
same,GI50,[2],> 100 µM (inactive)
same,GI50,[28],> 100 µM (inactive)
same,GI50,[29],> 100 µM (inactive)
same,GI50,[30],> 100 µM (inactive)
same,GI50,[31],> 100 µM (inactive)
same,GI50,[32],> 100 µM (inactive)
same,GI50,[56],> 100 µM (inactive)
same,GI50,[33],> 100 µM (inactive)
same,GI50,[3],> 100 µM (inactive)
same,GI50,[34],> 100 µM (inactive)
same,GI50,[35],> 100 µM (inactive)
same,GI50,[36],> 100 µM (inactive)
same,GI50,[4],> 100 µM (inactive)
same,GI50,[57],> 100 µM (inactive)
same,GI50,[37],> 100 µM (inactive)
same,GI50,[38],> 100 µM (inactive)
same,GI50,[39],> 100 µM (inactive)
same,GI50,[40],> 100 µM (inactive)
same,GI50,[41],> 100 µM (inactive)
same,GI50,[42],> 100 µM (inactive)
same,GI50,[43],> 100 µM (inactive)
same,GI50,[58],> 100 µM (inactive)
same,GI50,[44],> 100 µM (inactive)
same,GI50,[45],> 100 µM (inactive)
same,GI50,[5],> 100 µM (inactive)
same,GI50,[46],> 100 µM (inactive)
same,GI50,[47],> 100 µM (inactive)
same,GI50,[48],> 100 µM (inactive)
same,GI50,[49],> 100 µM (inactive)
same,GI50,[50],> 100 µM (inactive)
same,GI50,[51],> 100 µM (inactive)
same,GI50,[52],> 100 µM (inactive)
